# Source: patent publication US20220169628A1 (University of Florida Research Foundation, Incorporated, priority 2019, published 2022)
# Like-named read-outs stand apart in the source and are kept apart here.
# What was measured:
# Type in all cases: cell-based
# [1] = test system: human platelets; experiment: Human platelet viability, 48 h
# [2] = test system: MOLT-4 cells; experiment: Cell viability assay, MTS, 48 h, MOLT-4; conditions: for IC50: Homo sapiens, MOLT-4, 48 h
# Procedure: (§1) Acute lymphoblastic leukemia cells (MOLT-4 and RS4; 11) or small cell lung cancer (NCI-H146 or simply H146) were incubated with increasing concentrations of Bcl-xL degraders for 48 h. Cell viability was measured by tetrazolium-based MTS assay.
# [3] = test system: NCI-H146 cells; experiment: Cell viability assay, MTS, 48 h, NCI-H146
# Procedure: as §1
# [4] = target: Bcl-xL (Homo sapiens, UniProt Q07817); experiment: Protein degradation assay in MOLT-4 cells (western blot); set-up: endogenous in cells; host or cells: MOLT-4 cells; conditions: 16 h, read-out: DC50 (concentration with 50% degradation) of Bcl-xL
# Procedure: MOLT4 cells and human platelets were incubated with increasing concentrations of test compounds for 16 h. The cells were harvested and lysed in RIPA lysis buffer supplemented with protease and phosphatase inhibitor cocktails. An equal amount of protein (20 μg/lane) was resolved on a pre-cast 4-20% SDS-PAGE gel. Proteins were subsequently transferred to NOVEX PVDF membranes by electrophoresis. The membranes were blocked in blocking buffer (5% non-fat dry milk in TBS-T), and incubated with primary antibodies (at optimized concentrations) overnight at 4° C. After three washings in TBS-T, the membranes were incubated with an appropriate HRP-conjugated secondary antibody for 1 h at room temperature. After extensive washing for three times, the proteins of interest were detected with ECL western blotting detection reagents and recorded with autoradiography (Pierce Biotech, Rockford, Ill., USA). The primary antibodies for Bcl-xL (Cat #2762), Bcl-2 (Cat #2872), Mcl-1 (Cat #5453) and β-actin (Cat #4970) were purchased from Cell Signaling technology. The relative band intensity was measured using ImageJ software and normalized to b-actin. The DC50 (concentration with 50% degradation) was calculated using GraphPad Prism.
# MOLT-4 cells and human platelets were incubated with increasing concentrations of test compounds for 16 h. The cells were harvested and lysed in RIPA lysis buffer supplemented with protease and phosphatase inhibitor cocktails. An equal amount of protein (20 μg/lane) was resolved on a pre-cast 4-20% SDS-PAGE gel. Proteins were subsequently transferred to NOVEX PVDF membranes by electrophoresis. […] After extensive washing for three times, the proteins of interest were detected with ECL western blotting detection reagents and recorded with autoradiography (Pierce Biotech, Rockford, Ill., USA). […] The relative band intensity was measured using ImageJ software and normalized to β-actin. The DC50 was calculated using GraphPad Prism.
# [5] = test system: RS4;11 cells; experiment: Cell viability assay, MTS, 48 h, RS4;11; conditions: for IC50: Homo sapiens, RS4-11, 48 h
# Procedure: as §1
# [6] = test system: RS4 cells; experiment: Cell viability assay, MTS, 72 h, RS4;11; conditions: Homo sapiens
# Procedure: (§2) Cancer cells from different tissue origins including acute lymphoblastic leukemia (MOLT4 and RS4; 11), small cell lung cancer (NCI-H146 or simply H146), and multiple myeloma (EJM and H929) were incubated with increasing concentrations of Examples 1-21 or ABT-263 for 72 h. Cell viability was measured by tetrazolium-based MTS assay. 5×10^4 to 1×10^5 suspension cells or 3×10^3 to 5×10^3 adherent cells were seeded and treated in 96-well plates for 72 h. The EC50 values of individual agents were calculated with GraphPad Prism.
# [7] = test system: MOLT-4 cells; experiment: Cell viability assay, MTS, 72 h, MOLT-4; conditions: Homo sapiens; MOLT-4 cells, 72 h, MTS
# Procedure: as §2
# Chain of Bcl-xL (Q07817 whole entry): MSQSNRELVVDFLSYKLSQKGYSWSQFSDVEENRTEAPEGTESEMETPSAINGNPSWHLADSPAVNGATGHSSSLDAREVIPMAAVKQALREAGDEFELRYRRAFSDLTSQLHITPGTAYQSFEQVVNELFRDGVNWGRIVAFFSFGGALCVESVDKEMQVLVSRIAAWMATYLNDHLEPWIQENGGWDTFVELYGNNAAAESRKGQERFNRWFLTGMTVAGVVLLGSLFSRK
IC50 [6] [nM],IC50 [7] [nM],SMILES,other results
19.4,74,"Cc1ncsc1-c1ccc([C@H](C)NC(=O)[C@@H]2C[C@@H](O)CN2C(=O)[C@@H](NC(=O)CCCCCCCCCC(=O)NCC2(C)CCC(c3ccc(Cl)cc3)=C(CN3CCN(c4ccc(C(=O)NS(=O)(=O)c5ccc(N[C@H](CCN6CCOCC6)CSc6ccccc6)c(S(=O)(=O)C(F)(F)F)c5)cc4)CC3)C2)C(C)(C)C)cc1 (stereo partly drawn) [Compound 54, N^1-((4′-chloro-4-methyl-6-((4-(4-(((4-(((R)-4-morpholino-1-(phenylthio)butan-2-yl)amino)-3-((trifluoromethyl)sulfonyl)phenyl)sulfonyl)carbamoyl)phenyl)piperazin-1-yl)methyl)-2,3,4,5-tetrahydro-[1,1′-biphenyl]-4-yl)methyl)-N^11—((S)-1-((2S,4R)-4-hydroxy-2-(((S)-1-(4-(4-methylthiazol-5-yl)phenyl)ethyl)carbamoyl)pyrrolidin-1-yl)-3,3-dimethyl-1-oxobutan-2-yl)undecanediamide]",
43,124,"Cc1ncsc1-c1ccc([C@H](C)NC(=O)[C@@H]2C[C@@H](O)CN2C(=O)[C@@H](NC(=O)CCCCCCCC(=O)NCC2(C)CCC(c3ccc(Cl)cc3)=C(CN3CCN(c4ccc(C(=O)NS(=O)(=O)c5ccc(N[C@H](CCN6CCOCC6)CSc6ccccc6)c(S(=O)(=O)C(F)(F)F)c5)cc4)CC3)C2)C(C)(C)C)cc1 (stereo partly drawn) [Compound 52, N^1-((4′-chloro-4-methyl-6-((4-(4-(((4-(((R)-4-morpholino-1-(phenylthio)butan-2-yl)amino)-3-((trifluoromethyl)sulfonyl)phenyl)sulfonyl)carbamoyl)phenyl)piperazin-1-yl)methyl)-2,3,4,5-tetrahydro-[1,1′-biphenyl]-4-yl)methyl)-N^9—((S)-1-((2S,4R)-4-hydroxy-2-(((S)-1-(4-(4-methylthiazol-5-yl)phenyl)ethyl)carbamoyl)pyrrolidin-1-yl)-3,3-dimethyl-1-oxobutan-2-yl)nonanediamide]",
99,187,"Cc1ncsc1-c1ccc([C@H](C)NC(=O)[C@@H]2C[C@@H](O)CN2C(=O)[C@@H](NC(=O)CCCCCC(=O)NCC2(C)CCC(c3ccc(Cl)cc3)=C(CN3CCN(c4ccc(C(=O)NS(=O)(=O)c5ccc(N[C@H](CCN6CCOCC6)CSc6ccccc6)c(S(=O)(=O)C(F)(F)F)c5)cc4)CC3)C2)C(C)(C)C)cc1 (stereo partly drawn) [Compound 50, N^1-((4′-chloro-4-methyl-6-((4-(4-(((4-(((R)-4-morpholino-1-(phenylthio)butan-2-yl)amino)-3-((trifluoromethyl)sulfonyl)phenyl)sulfonyl)carbamoyl)phenyl)piperazin-1-yl)methyl)-2,3,4,5-tetrahydro-[1,1′-biphenyl]-4-yl)methyl)-N^7—((S)-1-((2S,4R)-4-hydroxy-2-(((S)-1-(4-(4-methylthiazol-5-yl)phenyl)ethyl)carbamoyl)pyrrolidin-1-yl)-3,3-dimethyl-1-oxobutan-2-yl)heptanediamide]",

# The next lines start with the compound.
SMILES,IC50 [6] [nM],IC50 [7] [nM],other results
"Cc1ncsc1-c1ccc([C@H](C)NC(=O)[C@@H]2C[C@@H](O)CN2C(=O)[C@@H](NC(=O)CCCCCCCCC(=O)NC[C@]2(C)CCC(c3ccc(Cl)cc3)=C(CN3CCN(c4ccc(C(=O)NS(=O)(=O)c5ccc(N[C@H](CCN6CCOCC6)CSc6ccccc6)c(S(=O)(=O)C(F)(F)F)c5)cc4)CC3)C2)C(C)(C)C)cc1 [degrader #42, N1-(((R)-4′-chloro-4-methyl-6-((4-(4-(((4-(((R)-4-morpholino-1-(phenylthio)butan-2-yl)amino)-3-((trifluoromethyl)sulfonyl)phenyl)sulfonyl)carbamoyl)phenyl)piperazin-1-yl)methyl)-2,3,4,5-tetrahydro-[1,1′-biphenyl]-4-yl)methyl)-N10-((S)-1-((2S,4R)-4-hydroxy-2-(((S)-1-(4-(4-methylthiazol-5-yl)phenyl)ethyl)carbamoyl)pyrrolidin-1-yl)-3,3-dimethyl-1-oxobutan-2-yl)decanediamide]",,,"effects on human platelets compared with ABT-263 ([1]; FIG. 7): substantially less effects on human platelets; IC50 ([1]; Platelet): 1.09 µM; potency in killing MOLT-4 cells compared with ABT-263 ([2]; 48 h, FIG. 7): more potent; IC50 ([2]; 48 h, read-out: MOLT-4 IC50 (nM, 48 h)): 15.2 nM; IC50 ([2]; 48 hours, read-out: IC50 (48 hours) MOLT-4): < 50 nM; potency in killing NCI-H146 cells compared with ABT-263 ([3]; FIG. 7): equally potent; IC50 ([3]; Homo sapiens): 45 nM; DC50 [4]: 11.5 nM; potency in killing RS4;11 cells compared with ABT-263 ([5]; 48 h, FIG. 7): more potent; IC50 ([5]; 48 h, read-out: RS4, 11 IC50 (nM, 48 h)): 9.9 nM; IC50 ([5]; 48 hours, read-out: IC50 (48 hours) RS4;11): < 50 nM"
"Cc1ncsc1-c1ccc([C@H](C)NC(=O)[C@@H]2C[C@@H](O)CN2C(=O)[C@@H](NC(=O)COCCOCCOCCOCCOC(=O)N2CCC(c3ccc(Cl)cc3)=C(CN3CCN(c4ccc(C(=O)NS(=O)(=O)c5ccc(N[C@H](CCN6CCOCC6)CSc6ccccc6)c(S(=O)(=O)C(F)(F)F)c5)cc4)CC3)C2)C(C)(C)C)cc1 [Compound 36, (S)-16-((2S,4R)-4-hydroxy-2-(((S)-1-(4-(4-methylthiazol-5-yl)phenyl)ethyl)carbamoyl)pyrrolidine-1-carbonyl)-17,17-dimethyl-14-oxo-3,6,9,12-tetraoxa-15-azaoctadecyl 4-(4-chlorophenyl)-5-((4-(4-(((4-(((R)-4-morpholino-1-(phenylthio)butan-2-yl)amino)-3-((trifluoromethyl)sulfonyl)phenyl)sulfonyl)carbamoyl)phenyl)piperazin-1-yl)methyl)-3,6-dihydropyridine-1(2H)-carboxylate]",1750,342,
"Cc1ncsc1-c1ccc([C@H](C)NC(=O)[C@@H]2C[C@@H](O)CN2C(=O)[C@@H](NC(=O)COCCOCCOCCOCC(=O)NCC2(C)CCC(c3ccc(Cl)cc3)=C(CN3CCN(c4ccc(C(=O)NS(=O)(=O)c5ccc(N[C@H](CCN6CCOCC6)CSc6ccccc6)c(S(=O)(=O)C(F)(F)F)c5)cc4)CC3)C2)C(C)(C)C)cc1 (stereo partly drawn) [Compound 59, N^1-((4′-chloro-4-methyl-6-((4-(4-(((4-(((R)-4-morpholino-1-(phenylthio)butan-2-yl)amino)-3-((trifluoromethyl)sulfonyl)phenyl)sulfonyl)carbamoyl)phenyl)piperazin-1-yl)methyl)-2,3,4,5-tetrahydro-[1,1′-biphenyl]-4-yl)methyl)-N^14—((S)-1-((2S,4R)-4-hydroxy-2-(((S)-1-(4-(4-methylthiazol-5-yl)phenyl)ethyl)carbamoyl)pyrrolidin-1-yl)-3,3-dimethyl-1-oxobutan-2-yl)-3,6,9,12-tetraoxatetradecanediamide]",404,973,
"Cc1ncsc1-c1ccc([C@H](C)NC(=O)[C@@H]2C[C@@H](O)CN2C(=O)[C@@H](NC(=O)COCCOCCOCCOCCOCC(=O)NCC2(C)CCC(c3ccc(Cl)cc3)=C(CN3CCN(c4ccc(C(=O)NS(=O)(=O)c5ccc(N[C@H](CCN6CCOCC6)CSc6ccccc6)c(S(=O)(=O)C(F)(F)F)c5)cc4)CC3)C2)C(C)(C)C)cc1 (stereo partly drawn) [Compound 60, N^1-((4′-chloro-4-methyl-6-((4-(4-(((4-(((R)-4-morpholino-1-(phenylthio)butan-2-yl)amino)-3-((trifluoromethyl)sulfonyl)phenyl)sulfonyl)carbamoyl)phenyl)piperazin-1-yl)methyl)-2,3,4,5-tetrahydro-[1,1′-biphenyl]-4-yl)methyl)-N^17—((S)-1-((2S,4R)-4-hydroxy-2-(((S)-1-(4-(4-methylthiazol-5-yl)phenyl)ethyl)carbamoyl)pyrrolidin-1-yl)-3,3-dimethyl-1-oxobutan-2-yl)-3,6,9,12,15-pentaoxaheptadecanediamide]",758,1410,
